One data set can be described thus: in vitro. As to conditions: human.
The next data set relates to HL-60. Briefly: HL-60 differentiation potency. The class given is cell-based. As to conditions: Homo sapiens.

As a reminder, the IC50 is the concentration needed to halve the response being measured. High values mean lower potency, low ones higher potency. Usually EC50 stands for the midpoint of the concentration-response curve. A high value points to lower potency in that assay.

Molecules are shown by their SMILES.

In turn, `Cc1cc(CN[C@@H]2O[C@@H]3O[C@@]4(C)CC[C@H]5[C@H](C)CC[C@@H]([C@H]2C)[C@@]35OO4)cc(C)n1` [Compound 37, (3R,5aS,6R,8aS, 9R,10R,12R, 12aR)-N-((2,6-dimethylpyridin-4-yl)methyl)-3,6,9-trimethyldeca-hydro-12H-3,12-epoxy[1,2] dioxepino[4,3-i] isochromen-10-amine] had a half-inhibitory concentration (IC50) in “in vitro” of 590 nM. This compound showed an EC50 with HL-60 of 555 nM.

`C[C@H]1[C@H](N2CC(S(C)(=O)=O)C2)O[C@@H]2O[C@@]3(C)CC[C@H]4[C@H](C)CC[C@@H]1[C@@]24OO3` [Compound 4, 3-(methylsulfonyl)-1-((3R,5aS,6R, 8aS,9R,10R, 12R,12aR)-3,6,9-trimethyldeca-hydro-1H-3,12-epoxy[1,2]dioxepino[4,3-i]isochromen-10-yl)azetidine] returned a 50% inhibitory concentration (IC50) in the data set “in vitro” of 101 nM. Also, the EC50 in the data set with HL-60 came out at 42.8 nM.

As for `C[C@H]1[C@@H](Oc2ccc(C(=O)N[C@H](C(=O)O)C(C)(C)C)cc2)O[C@@H]2O[C@@]3(C)CC[C@H]4[C@H](C)CC[C@@H]1[C@@]24OO3` [Compound 184, (S)-3,3-dimethyl-2-(4-(((3R,5aS,6R,8aS, 9R,10S,12R, 12aR)-3,6,9-trimethyldeca-hydro-12H-3,12-epoxy[1,2]dioxepino[4,3-i]isochromen-10-yl)oxy)benzamido) butanoic acid], half-maximal inhibition in “in vitro” (IC50) was put at 800 nM. For the same compound, in the data set on HL-60, the EC50 stood at 17 nM.

On to `C[C@H]1[C@H](OCCCc2ccc(C(=O)O)cc2)O[C@@H]2O[C@@]3(C)CC[C@H]4[C@H](C)CC[C@@H]1[C@@]24OO3` [Compound 21, 4-(3-(((3R,5aS,6R,8aS, 9R,10R,12R, 12aR)-3,6,9-trimethyldeca-hydro-12H-3,12-epoxy[1,2]dioxepino[4,3-i]isochromen-10-yl)oxy)propyl) benzoic acid], for which the IC50 in “in vitro” is > 20000 nM. A half-maximal response in the data set on HL-60 (EC50) required 123 nM.

For `C[C@H]1[C@@H](Oc2ccc(C3CC(C(=O)O)C3)cc2)O[C@@H]2O[C@@]3(C)CC[C@H]4[C@H](C)CC[C@@H]1[C@@]24OO3` (stereo partly drawn) [Compound 175, 3-(4-(((3R,5aS,6R,8aS, 9R,10S,12R, 12aR)-3,6,9-trimethyldeca-hydro-12H-3,12-epoxy[1,2]dioxepino[4,3-i]isochromen-10-yl)oxy)phenyl) cyclobutane-1-carboxylic acid], in the data set “in vitro”, the midpoint of inhibition, the IC50, lay at 1500 nM. The compound further displayed a half-maximal effective concentration (EC50) in the data set on HL-60 of 58.1 nM.

On to `COc1cc(CO[C@@H]2O[C@@H]3O[C@@]4(C)CC[C@H]5[C@H](C)CC[C@@H]([C@H]2C)[C@@]35OO4)ccc1C(=O)O` [Compound 54, 2-methoxy-4-((((3R,5aS,6R,8aS, 9R,10R,12R, 12aR)-3,6,9-trimethyldeca-hydro-12H-3,12-epoxy[1,2]dioxepino[4,3-i]isochromen-10-yl)oxy)methyl) benzoic acid], for which the IC50 in the data set “in vitro” is > 20000 nM. In addition, in the data set with HL-60, the midpoint of the response, the EC50, lay at 2820 nM.

For `CC(O[C@H]1O[C@@H]2O[C@@]3(C)CC[C@H]4[C@H](C)CC[C@@H]([C@H]1C)[C@@]24OO3)c1ccc(C(=O)O)cc1Cl` (stereo partly drawn) [Compound 179, 3-chloro-4-(1-(((3R,5aS,6R,8aS, 9R,10S,12R, 12aR)-3,6,9-trimethyldeca-hydro-12H-3,12-epoxy[1,2]dioxepino[4,3-i]isochromen-10-yl)oxy)ethyl) benzoic acid], in the data set “in vitro”, half-maximal inhibition (IC50) required 1500 nM. Further, the EC50 in the data set with HL-60 amounted to 65.8 nM.

As to `C[C@H]1[C@@H](OCc2cccc(CC(=O)O)c2)O[C@@H]2O[C@@]3(C)CC[C@H]4[C@H](C)CC[C@@H]1[C@@]24OO3` [Compound 34, 2-(3-((((3R,5aS,6R, 8aS,9R,10S,12R, 12aR)-3,6,9-trimethyldeca-hydro-12H-3,12-epoxy[1,2]dioxepino[4,3-i]isochromen-10-yl)oxy)methyl)phenyl)acetic acid], in the data set “in vitro”, the half-inhibitory concentration (IC50) is > 20000 nM. Besides, in the data set on HL-60, a half-maximal response (EC50) required 480 nM.

In the case of `C[C@H]1[C@@H](Nc2cccc(F)c2)O[C@@H]2O[C@@]3(C)CC[C@H]4[C@H](C)CC[C@@H]1[C@@]24OO3` [Compound 56, (3R,5aS,6R,8aS, 9R,10S,12R, 12aR)-N-(3-fluorophenyl)-3,6,9-trimethyldeca-hydro-12H-3,12-epoxy[1,2] dioxepino[4,3-i] isochromen-10-amine], the IC50 in “in vitro” was 11000 nM. This compound also returned an EC50 with HL-60 of 8190 nM.

`C[C@H]1[C@H](Oc2ccc(C#CC(=O)O)cc2)O[C@@H]2O[C@@]3(C)CC[C@H]4[C@H](C)CC[C@@H]1[C@@]24OO3` [Compound 139, 3-(4-(((3R,5aS,6R,8aS, 9R,10R,12R, 12aR)-3,6,9-trimethyldeca-hydro-12H-3,12-epoxy[1,2]dioxepino[4,3-i]isochromen-10-yl)oxy)phenyl) propiolic acid] yielded an IC50 in the data set “in vitro” of 3000 nM. In the data set on HL-60, the EC50 is 30.9 nM.

`CC(C)C(C(=O)O)c1ccc(O[C@H]2O[C@@H]3O[C@@]4(C)CC[C@H]5[C@H](C)CC[C@@H]([C@H]2C)[C@@]35OO4)cc1` (stereo partly drawn) [Compound 146, 3-methyl-2-(4-(((3R,5aS,6R,8aS, 9R,10S,12R, 12aR)-3,6,9-trimethyldeca-hydro-12H-3,12-epoxy[1,2]dioxepino[4,3-i]isochromen-10-yl)oxy)phenyl) butanoic acid] registered an IC50 in the data set “in vitro” of 800 nM. In the data set on HL-60, this compound showed an EC50 of 59.6 nM.

For `C[C@H]1[C@@H](OC[C@H]2CC[C@@H](C(=O)O)CC2)O[C@@H]2O[C@@]3(C)CC[C@H]4[C@H](C)CC[C@@H]1[C@@]24OO3` [Compound 11, (1R,4s)-4-((((3R,5aS,6R,8aS, 9R,10S,12R, 12aR)-3,6,9-trimethyldeca-hydro-12H-3,12-epoxy[1,2]dioxepino[4,3-i]isochromen-10-yl)oxy)methyl) cyclohexane-1-carboxylic acid], the IC50 in “in vitro” is > 20000 nM. In addition, a half-maximal effect in the data set on HL-60 (EC50) was put at 87.4 nM.

As for `C[C@H]1[C@H](OCc2ccc(C(=O)O)c(F)c2)O[C@@H]2O[C@@]3(C)CC[C@H]4[C@H](C)CC[C@@H]1[C@@]24OO3` [Compound 39, 2-fluoro-4-((((3R,5aS,6R,8aS, 9R,10R,12R, 12aR)-3,6,9-trimethyldeca-hydro-12H-3,12-epoxy[1,2]dioxepino[4,3-i]isochromen-10-yl)oxy)methyl) benzoic acid], the IC50 in the data set “in vitro” is > 20000 nM. The same compound registered an EC50 in the data set with HL-60 of 631 nM.

In the case of `COc1cc(CO[C@H]2O[C@@H]3O[C@@]4(C)CC[C@H]5[C@H](C)CC[C@@H]([C@H]2C)[C@@]35OO4)ccc1C(=O)O` [Compound 35, 2-methoxy-4-((((3R,5aS,6R, 8aS,9R,10S,12R, 12aR)-3,6,9-trimethyldeca-hydro-12H-3,12-epoxy[1,2]dioxepino[4,3-i]isochromen-10-yl)oxy)methyl) benzoic acid], in “in vitro”, the IC50 was > 20000 nM. The compound also gave an EC50 with HL-60 of 481 nM.

`C[C@H]1[C@@H](OC(=O)CCC(O)c2ccc(Cl)cc2)O[C@@H]2O[C@@]3(C)CC[C@H]4[C@H](C)CC[C@@H]1[C@@]24OO3` (stereo partly drawn) [Compound 93, (3R,5aS,6R,8aS, 9R,10R,12R, 12aR)-3,6,9-trimethyldeca-hydro-12H-3,12-epoxy[1,2] dioxepino[4,3-i] isochromen-10-yl 4-(4-chlorophenyl)-4-hydroxybutanoate] displayed an IC50 in the data set “in vitro” of 87.7 nM. In addition, in the data set on HL-60, it took 78.6 nM to reach a half-maximal effect (EC50).

`C[C@H]1[C@@H](Oc2ccc(CC(=O)NC(C)(C)C)cc2)O[C@@H]2O[C@@]3(C)CC[C@H]4[C@H](C)CC[C@@H]1[C@@]24OO3` [Compound 104, N-(tert-butyl)-2-(4-(((3R,5aS,6R,8aS, 9R,10S,12R, 12aR)-3,6,9-trimethyldeca-hydro-12H-3,12-epoxy[1,2]dioxepino[4,3-i]isochromen-10-yl)oxy)phenyl) acetamide] registered a half-maximal inhibitory concentration (IC50) in the data set “in vitro” of 160 nM. Also, the EC50 in the data set with HL-60 came to 52.3 nM.

With `C[C@H]1[C@@H](OCCc2ccc(C(=O)O)cc2)O[C@@H]2O[C@@]3(C)CC[C@H]4[C@H](C)CC[C@@H]1[C@@]24OO3` [Compound 36, 4-(2-(((3R,5aS,6R,8aS, 9R,10S,12R, 12aR)-3,6,9-trimethyldeca-hydro-12H-3,12-epoxy[1,2]dioxepino[4,3-i]isochromen-10-yl)oxy)ethyl) benzoic acid], the IC50 in the data set “in vitro” is > 20000 nM. Further, the EC50 in the data set with HL-60 is 526 nM.

`C[C@H]1[C@@H](Oc2ccc(CC(=O)O)cc2C(F)(F)F)O[C@@H]2O[C@@]3(C)CC[C@H]4[C@H](C)CC[C@@H]1[C@@]24OO3` [Compound 183, 2-(3-(trifluoromethyl)-4-(((3R,5aS,6R, 8aS,9R,10S,12R, 12aR)-3,6,9-trimethyldeca-hydro-12H-3,12-epoxy[1,2]dioxepino[4,3-i]isochromen-10-yl)oxy)phenyl) acetic acid] gave an IC50 in “in vitro” of 900 nM. Further, in the data set with HL-60, it took 47.1 nM to reach a half-maximal effect (EC50).

As to `Cc1cc(C(=O)O)ccc1CO[C@H]1O[C@@H]2O[C@@]3(C)CC[C@H]4[C@H](C)CC[C@@H]([C@H]1C)[C@@]24OO3` [Compound 74, 3-methyl-4-((((3R,5aS,6R,8aS, 9R,10S,12R, 12aR)-3,6,9-trimethyldeca-hydro-12H-3,12-epoxy[1,2]dioxepino[4,3-i]isochromen-10-yl)oxy)methyl) benzoic acid], the IC50 in the data set “in vitro” is > 20000 nM. This compound had an EC50 with HL-60 of 865 nM.

`CNS(=O)(=O)CCN[C@@H]1O[C@@H]2O[C@@]3(C)CC[C@H]4[C@H](C)CC[C@@H]([C@H]1C)[C@@]24OO3` [Compound 97, N-methyl-2-(((3R,5aS,6R,8aS, 9R,10R,12R, 12aR)-3,6,9-trimethyldeca-hydro-12H-3,12-epoxy[1,2]dioxepino[4,3-i]isochromen-10-yl)amino)ethane-1-sulfonamide] came in with a 50% inhibitory concentration (IC50) in the data set “in vitro” of 2080 nM. In the data set on HL-60, the midpoint of the response, the EC50, lay at 2340 nM.

`Cc1cc(C(=O)O)ccc1CO[C@@H]1O[C@@H]2O[C@@]3(C)CC[C@H]4[C@H](C)CC[C@@H]([C@H]1C)[C@@]24OO3` [Compound 44, 3-methyl-4-((((3R,5aS,6R,8aS, 9R,10R,12R, 12aR)-3,6,9-trimethyldeca-hydro-12H-3,12-epoxy[1,2]dioxepino[4,3-i]isochromen-10-yl)oxy)methyl) benzoic acid]: in “in vitro”, the IC50 is > 20000 nM. The same compound returned a half-maximal effective concentration (EC50) in the data set on HL-60 of 1010 nM.

For `C[C@H]1[C@@H](Oc2ccc(F)c(CC(=O)O)c2)O[C@@H]2O[C@@]3(C)CC[C@H]4[C@H](C)CC[C@@H]1[C@@]24OO3` [Compound 27, 2-(2-fluoro-5-(((3R,5aS,6R, 8aS,9R,10S,12R, 12aR)-3,6,9-trimethyldeca-hydro-12H-3,12-epoxy[1,2]dioxepino[4,3-i]isochromen-10-yl)oxy)phenyl) acetic acid], in the data set “in vitro”, the half-inhibitory concentration (IC50) is > 20000 nM. This compound also displayed a concentration for a half-maximal effect (EC50) in the data set on HL-60 of 239 nM.
